From paper PMC4000412, “Novel LHRH-receptor-targeted cytolytic peptide, EP-100: first-in-human phase I study in patients with advanced LHRH-receptor-expressing solid tumors” (Cancer Chemotherapy and Pharmacology, 2014)
“Also recorded” adds a separate entry of the source. Peptide text beside a SMILES is read from it.

Experiments:
[1] = system: human cancer cell lines expressing the LHRH receptor; conditions: cited from earlier work
Source text: EP-100 is a synthetic 28 amino acid consisting of the LHRH natural ligand joined to an 18 amino acid cationic α-helical lytic peptide (CLIP-71) without a linker. LHRH delivers the lytic peptide to cancer cells via specific binding to cell-surface LHRH receptors. Although EP-100’s exact mechanism of action has not yet been resolved, cancer cell membrane surface characteristics are believed to play a critical role.

[2] = Phase I dose-escalation safety: MTD, DLT, adverse events (NCI CTCAE 3.0); assay type: in vivo, human
Description: An open-label dose-escalation study was conducted at three centers after review and approval by each centers’ Institutional Review Board. Patients’ written informed consent was provided prior to study enrollment. The primary objectives of the study were to determine the maximum-tolerated dose (MTD) of EP-100 by intravenous (IV) infusion and to describe any dose limiting toxicities (DLT), which would inform the recommended phase 2 dose (RP2D) of EP-100 for future phase 2 protocols. Secondary objectives included: (a) to profile the PK and PD of EP-100, (b) to assess any drug immunogenicity by antidrug antibodies (ADA) which may react with endogenous LHRH, (c) to monitor biomarkers of pharmacologic activity of EP-100 and (d) to assess antitumor activity of EP-100 by radiographic assessments.
Cohorts of three patients were enrolled in a 3 + 3 dose-escalation design. […] A conservative first-in-human starting dose of 0.6 mg/m^2 was chosen, based on the repeat-dose toxicity studies in dogs (which appeared to be the most sensitive species). The initial dose schedule of one 30 min infusion weekly was predicted from animal PK profiles. Dosing frequency and infusion time were increased in subsequent cohorts by two protocol amendments. To increase the cumulative dose-exposure to EP-100, infusions were increased to twice weekly after conducting safety assessments in the first seven cohorts (n = 21 patients, at dose levels 0.6–7.8 mg/m^2). Twice weekly infusions effectively doubled the EP-100 delivered in all patients after cohort 7. The infusion time for the twice weekly doses also was increased from 30 to 60 min beginning with one patient in cohort 8 (dose level 11.7 mg/m^2), which decreased the intensity of infusion reactions (described below).
The absence of grade 2 drug-related toxicities in lower dose cohorts allowed 100 % dose acceleration. In the event of grade 2 or higher non-DLT in one or more patients, dose was escalated by 50 %. Dose escalation was limited to 50 % for any grade 1 or 2 drug-related dermatologic reactions unlikely to be allergic reaction or histamine-release syndromes and to 25 % for any grade 3 or 4 drug-related infusion reaction. With occurrence of the first DLT, the cohort was expanded to three additional patients. If one or more of the three additional patients at that dose level experienced DLT (total of two or more patients with DLT), MTD was reached. MTD was defined as the dose level below which two out of three to six patients experienced a DLT during the first cycle or during 1 complete cycle (28 days).
All adverse events (AE) were graded and reported according to National Cancer Institute Common Terminology Criteria for Adverse Events version 3.0 (NCI CTCAE 3.0). DLT were recorded during Cycle 1 if patients had any of the following: grade 4 neutropenia lasting 5 or more days, grade 3/4 neutropenia with fever and/or infection, grade 4 thrombocytopenia or grade 3 thrombocytopenia with bleeding, grade 3 or 4 allergic reaction, grade 3 or 4 drug-related non-hematologic toxicity (not including grade 3 nausea/vomiting or diarrhea with sub-optimal prophylactic and curative treatment) or a dose delay of more than 2 weeks due to treatment-related AE or laboratory abnormalities. Any grade 3 AE not judged to be clinically significant (e.g., alopecia or drug-related fever) were not considered DLT.

[3] = selected toxicities, all cycles, N = 37

## CC(C)C[C@H](NC(=O)CNC(=O)[C@H](Cc1ccc(O)cc1)NC(=O)[C@H](CO)NC(=O)[C@H](Cc1c[nH]c2ccccc12)NC(=O)[C@H](Cc1c[nH]cn1)NC(=O)[C@@H]1CCC(=O)N1)C(=O)N[C@@H](CCCNC(=N)N)C(=O)N1CCC[C@H]1C(=O)NCC(=O)N[C@@H](CCCCN)C(=O)N[C@@H](Cc1ccccc1)C(=O)N[C@@H](C)C(=O)N[C@@H](CCCCN)C(=O)N[C@@H](Cc1ccccc1)C(=O)N[C@@H](C)C(=O)N[C@@H](CCCCN)C(=O)N[C@@H](CCCCN)C(=O)N[C@@H](Cc1ccccc1)C(=O)N[C@@H](C)C(=O)N[C@@H](CCCCN)C(=O)N[C@@H](Cc1ccccc1)C(=O)N[C@@H](C)C(=O)N[C@@H](CCCCN)C(=O)N[C@@H](CCCCN)C(=O)N[C@@H](Cc1ccccc1)C(=O)N[C@@H](C)C(=O)N[C@@H](CCCCN)C(=O)O [EP-100] (HELM PEPTIDE1{[Glp].H.W.S.Y.G.L.R.P.G.K.F.A.K.F.A.K.K.F.A.K.F.A.K.K.F.A.K}$$$$V2.0; C-terminus assumed)
[1]; in vitro, low micromolar concentrations
  release of cell-death proteases from cells: released from cells within minutes
[1]; in vitro
  incubation time to complete cell lysis: 1 h
[1]; various human cancer cell lines from solid tumors and hematological malignancies expressing the LHRH receptor, ref Esperance data on file, 37
  in vitro activity level: sub-micromolar
[2]; 0.6–1.7 mg/m^2 at dose concentrations of 0.01–0.03 mg/mL
  IRDRs in the four lowest dose cohorts: No IRDRs
[2]; all 37 patients, all dose levels
  toxicities / AE of grade 3 or higher: No toxicities ≥grade 3; also recorded: no grade 3 or 4 AE
[2]; all dose levels
  IRDRs (infusion-related dermatologic reactions) reported: 10 of 37
[2]; dosing 1.35 mg/m^2 qw
  SAE Disease progression, No. of patients (%): 1 (2.7) No. of patients (%)
  SAE Disease progression, Outcome: Death
  SAE Disease progression, Relationship to EP-100: Unrelated
  SAE Gastrointestinal hemorrhage, No. of patients (%): 1 (2.7) No. of patients (%)
  SAE Gastrointestinal hemorrhage, Outcome: Resolved
  SAE Gastrointestinal hemorrhage, Relationship to EP-100: Unlikely related
  SAE Peripheral edema, No. of patients (%): 1 (2.7) No. of patients (%)
  SAE Peripheral edema, Outcome: Resolved with sequelae
  SAE Peripheral edema, Relationship to EP-100: Unrelated
[2]; dosing 1.7 mg/m^2 qw
  SAE Pain, No. of patients (%): 1 (2.7) No. of patients (%)
  SAE Pain, Outcome: Ongoing
  SAE Pain, Relationship to EP-100: Unrelated
[2]; dosing 11.7 mg/m^2 biw
  SAE Chills, No. of patients (%): 1 (2.7) No. of patients (%)
  SAE Chills, Outcome: Resolved
  SAE Chills, Relationship to EP-100: Unrelated
  SAE Hydronephrosis, No. of patients (%): 1 (2.7) No. of patients (%)
  SAE Hydronephrosis, Outcome: Resolved
  SAE Hydronephrosis, Relationship to EP-100: Unrelated
[2]; dosing 17.5 mg/m^2 biw
  SAE Febrile neutropenia, No. of patients (%): 1 (2.7) No. of patients (%)
  SAE Febrile neutropenia, Outcome: Resolved
  SAE Febrile neutropenia, Relationship to EP-100: Unrelated
[2]; dosing 26 mg/m^2 biw
  SAE Ascites, No. of patients (%): 1 (2.7) No. of patients (%)
  SAE Ascites, Outcome: Resolved with sequelae
  SAE Ascites, Relationship to EP-100: Unlikely related
  SAE Fatigue, No. of patients (%): 1 (2.7) No. of patients (%)
  SAE Fatigue, Outcome: Resolved
  SAE Fatigue, Relationship to EP-100: Unrelated
[2]; dosing 40 mg/m^2 biw
  SAE Facial paresis, No. of patients (%): 1 (2.7) No. of patients (%)
  SAE Facial paresis, Outcome: Ongoing
  SAE Facial paresis, Relationship to EP-100: Unrelated
[2]; dosing 0.6, 0.9 mg/m^2 qw
  SAE Gastrointestinal obstruction, No. of patients (%): 2 (5.4) No. of patients (%)
  SAE Gastrointestinal obstruction, Outcome: Resolved with sequelae
  SAE Gastrointestinal obstruction, Relationship to EP-100: Unrelated
[2]; dosing 11.7, 26 mg/m^2 biw
  SAE Pleural effusion, No. of patients (%): 2 (5.4) No. of patients (%)
  SAE Pleural effusion, Outcome: Resolved
  SAE Pleural effusion, Relationship to EP-100: Unrelated
[2]; highest dose evaluated 40 mg/m^2 twice weekly, IV infusion, 3 of 4 weeks per 28 day cycle
  maximum-tolerated dose (MTD): not reached
[2]; in vivo
  onset of IRDRs after start of the drug infusion: ≤ 15 min
[2]; n = 4 patients of 37
  infusion site hypersensitivity, patients: 10.8%
[2]; one patient of 37
  pain, patients: 2.7%
[2]; [3]
  AP (alkaline phosphatase), Grade 1/2: 1 (2.7) No. of patients (%)
  AP (alkaline phosphatase), Grade 3/4: 0 No. of patients (%)
  AST/ALT, Grade 1/2: 1 (2.7) No. of patients (%)
  AST/ALT, Grade 3/4: 0 No. of patients (%)
  Diarrhea, Grade 1/2: 1 (2.7) No. of patients (%)
  Diarrhea, Grade 3/4: 0 No. of patients (%)
  Fatigue, Grade 1/2: 4 (10.8) No. of patients (%)
  Fatigue, Grade 3/4: 0 No. of patients (%)
  Gastroesophageal reflux, Grade 1/2: 1 (2.7) No. of patients (%)
  Gastroesophageal reflux, Grade 3/4: 0 No. of patients (%)
  Hemoglobin, Grade 1/2: 0 No. of patients (%)
  Hemoglobin, Grade 3/4: 0 No. of patients (%)
  Infusion-related dermatologic reactions, Grade 1/2: 10 (27) No. of patients (%)
  Infusion-related dermatologic reactions, Grade 3/4: 0 No. of patients (%)
  Neutrophils, Grade 1/2: 0 No. of patients (%)
  Neutrophils, Grade 3/4: 0 No. of patients (%)
  Platelets, Grade 1/2: 0 No. of patients (%)
  Platelets, Grade 3/4: 0 No. of patients (%)
  Total bilirubin, Grade 1/2: 0 No. of patients (%)
  Total bilirubin, Grade 3/4: 0 No. of patients (%)
  Vomiting, Grade 1/2: 1 (2.7) No. of patients (%)
  Vomiting, Grade 3/4: 0 No. of patients (%)
[2]; treatment-emergent, 37 patients
  number of SAE recorded: Fourteen
[2]; two patients of 37
  decreased appetite, patients: 5.4%
[2]; typically
  time to disappearance of all IRDR symptoms after cessation of the infusion: ≤ 30 min
